Laboratory results: US20070037709A1, “Polyethylene glycol esters of r-(+)-mcpp acid” (priority 2003, published 2007)
Read-outs that look alike come from different tables or passages of the source.

Key:
lupin = test system: lupin
Description: The compounds and mixtures of Examples 1 and 2 were tested for their activity for root penetration inhibition as specified in DIN 4062 (lupin test): […]

undesired plants = details: crop protection; cited from earlier work

| SMILES | Root penetration into (number) (lupin; Concentration 0.1%) | Root penetration through (number) (lupin; Concentration 0.1%) | Root penetration into (number) (lupin; Concentration 0.2%) | Root penetration through (number) (lupin; Concentration 0.2%) | Root penetration into (number) (lupin; Concentration 0.5%) | Root penetration through (number) (lupin; Concentration 0.5%) | Root penetration into (number) (lupin; Concentration 1.0%) | Root penetration through (number) (lupin; Concentration 1.0%) | herbicidal effectiveness compared with the S-(−) isomer or the racemic mixture (undesired plants) |
| --- | --- | --- | --- | --- | --- | --- | --- | --- | --- |
| Cc1cc(Cl)ccc1OC(C)C(=O)OCCOCCOCCOCCOC(=O)C(C)Oc1ccc(Cl)cc1C (racemic) [Example 2, diester of tetraethylene glycol with rac-2-(4-chloro-2-methylphenoxy)propionic acid] | approx. 40 number | 1 number | approx. 40 number | 0 number | approx. 10 number | 0 number | 0 number | 0 number |  |
| Cc1cc(Cl)ccc1O[C@H](C)C(=O)OCCOCCOCCOCCOC(=O)[C@@H](C)Oc1ccc(Cl)cc1C [Example 1, diester of tetraethylene glycol with R-(+)-2-(4-chloro-2-methylphenoxy)propionic acid] | approx. 40 number | 0 number | approx. 15 number | 0 number | 1 number | 0 number |  |  |  |
| Cc1cc(Cl)ccc1O[C@@H](C)C(=O)OCCOCCOCCOCCOC(=O)[C@H](C)Oc1ccc(Cl)cc1C [Example 4, diester of tetraethylene glycol with S-(−)-2-(4-chloro-2-methylphenoxy)propionic acid] | >50 number | >50 number | >50 number | >50 number | >50 number | >50 number | approx. 40 number | approx. 40 number |  |
| Cc1cc(Cl)ccc1O[C@H](C)C(=O)O [R-(+) isomer, R-(+)-2-(4-chloro-2-methylphenoxy)propionic acid] |  |  |  |  |  |  |  |  | markedly more effective |
